Key:
human-derived STING = human-derived STING (Homo sapiens, UniProt Q86WV6); settings: cited from earlier work
[1] = test system: type I interferon pathway in murine Raw-lucia cells; experiment: Activation of type I interferon pathway in murine Raw-lucia cells (QUANTI-Luc luminescence); format: cell-based; settings: Mus musculus, 24 h, Compound Luminescence/Control Luminescence, ≥2 times considered valid, read-out: Fold Change
Description: Raw-lucia cells were counted, the cell concentration was adjusted to 5×10^5/mL, and 180 μL of cells were added to each well for incubation. 20 μL of compound diluted with physiological saline was added to each well of a 96-well cell culture plate after cells were adhered, the concentration of the compound was 50 μM/100 μM.
After 24 hours, 20 μL of the culture medium was took out from each well to a new 96-well plate with bottom-transmitting, 50 μL of the luciferase detection reagent QUANTI-Luc™ was added, and the […] was measured immediately (in the dark). The experiment was repeated twice.

[2] = test system: CT26 mouse colon cancer cells; experiment: CT26 colon cancer subcutaneous xenograft model in vivo; settings: Balb/C mice, intratumoral injection (IT), days 1/2/3/4/7; FIG. 2
Description: […] When the tumor volume grew to about 100 mm^3, the mice were randomly divided into 5 groups, 6 mice in each group.
(§1) Experimental results were evaluated in the form of tumor volume growth curves.

[3] = test system: type I interferon pathway (ISG) in human THP1-Blue-ISG cells; experiment: Activation of type I interferon pathway (ISG) in human THP1-Blue-ISG cells (Quanti-Blue, OD650); format: cell-based; settings: Homo sapiens, THP1-Blue ISG; 10 μM, 24 h; Compound OD650/Control OD650; ≥2 times considered valid; read-out: Fold Change
Description: 20 μL of compound diluted with physiological saline was added to each well of a 96-well cell culture plate, the positive control compound was ADU-S100, and the solvent control group was added with 20 μL of physiological saline containing DMSO. THP1-Blue-ISG cells were counted, the cell concentration was adjusted to 5×10^5/mL, and 180 μL of cells were added to each well for incubation. Therefore, the final volume of each test well was 200 μL, the content of DMSO was 0.1%/0.5%, the test concentration of the compound was 10/50 μM, and the positive control compound was ADU-S100 at a final concentration of 10 μM, and incubated for 24 hours for detection.
After 24 hours, 20 μL of the culture solution was took out from each well to a new 96-well plate, 180 μL of chromogenic solution Quanti-Blue was added, placed in a 37° C. incubator, and the OD650 value was measured after 0.5-2 hours. The experiment was repeated twice.
The experimental results were used to evaluate the ability of compounds to induce the secretion of type I interferon pathway (ISG) by the Fold Change, which was calculated as follows:
Fold Change=Compound OD650/Control OD650, wherein the results of ≥2 times were considered valid.

[4] = test system: 4T1 mouse breast cancer cells; experiment: 4T1 breast cancer orthotopic tumor model in vivo; settings: Balb/C mice, intratumoral injection (IT), days 1/2/3/4/7; FIG. 1
Description: 6-8 week old Balb/C mice were inoculated with 2.5×10^5 4T1 mouse breast cancer cells in the mammary fat pad of each mouse. When the tumor volume grew to about 100 mm^3, the mice were randomly divided into 5 groups, 6 mice in each group.
as §1

[5] = test system: type I interferon pathway (ISG) in human THP1-Blue-ISG cells; experiment: Activation of type I interferon pathway (ISG) in human THP1-Blue-ISG cells (Quanti-Blue, OD650); format: cell-based; settings: 30 μM, 24 h, Compound OD650/Control OD650, ≥2 times considered valid, read-out: Fold Change

Chain of human-derived STING (Q86WV6 whole entry H232R): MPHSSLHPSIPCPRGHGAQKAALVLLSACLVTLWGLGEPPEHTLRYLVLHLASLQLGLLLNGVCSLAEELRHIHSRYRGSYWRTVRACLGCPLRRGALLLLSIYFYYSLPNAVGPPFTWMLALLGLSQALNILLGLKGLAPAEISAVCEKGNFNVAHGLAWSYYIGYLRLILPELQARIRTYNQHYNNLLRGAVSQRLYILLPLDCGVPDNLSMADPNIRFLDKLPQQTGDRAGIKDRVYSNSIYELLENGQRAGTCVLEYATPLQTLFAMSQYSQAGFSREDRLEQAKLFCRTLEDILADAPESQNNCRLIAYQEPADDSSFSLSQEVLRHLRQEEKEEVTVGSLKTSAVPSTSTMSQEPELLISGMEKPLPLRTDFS

| SMILES | fold induction at 50 µM [1] | fold induction at 100 µM [1] | fold induction at 30 µM [5] | further results |
| --- | --- | --- | --- | --- |
| Cc1ccc2c(=O)c3cccc(CC(=O)O)c3oc2c1C [DMXAA] | – | – | – | agonistic effect on STING (human-derived STING): ineffective |
| O=C(O)CCC(=O)c1cc(-c2c[nH]c3ccccc23)cs1 [I′-31, 4-(4-(1H-indol-3-yl)thiophen-2-yl)-4-oxobutyric Acid] | 21.8 | – | – | anti-tumor effect (tumor volume growth curves) [2]: significant anti-tumor effect; tumor regression [2]: tumor regression effect is achieved in some mouse tumor models; fold induction at 10 µM [3]: 13.8; anti-tumor effect (tumor volume growth curves) [4]: significant anti-tumor effect; tumor regression [4]: tumor regression effect is achieved in some mouse tumor models |
| O=C(O)CCC(=O)c1cc(-c2coc3cc(F)ccc23)co1 [I′-42, 4-(4-(6-fluorobenzofuran-3-yl)furan-2-yl)-4-oxobutyric Acid] | – | 7.45 | 16.8 | – |
| O=C(O)CCC(=O)c1cc(-c2c[nH]c3ccc(F)cc23)cs1 [I′-48, 4-(4-(5-fluoro-1H-indol-3-yl)thiophen-2-yl)-4-oxobutyric Acid] | – | 7.63 | 14.7 | – |
| O=C(O)CCC(=O)c1cc(-c2coc3c(F)cccc23)cs1 [I′-55, 4-(4-(7-fluorobenzofuran-3-yl)thiophen-2-yl)-4-oxobutyric Acid] | 12.2 | – | 16 | – |
| O=C(O)CCC(=O)c1scc(-c2c[nH]c3ccccc23)c1F [I′-56, 4-(3-fluoro-4-(1H-indol-3-yl)thiophen-2-yl)-4-oxobutyric Acid] | 12.9 | – | 14.9 | – |
